Where two headings read alike, the source gives them in different places. Positions of bridges follow the written chain, without caps; N, C: chain ends. Non-standard residues stand in square brackets, D forms with d. Residues, ends and D or L forms follow the SMILES beside them. hArg = N=C(N)NCCCC[C@H](N)C(=O)O; Mpa = O=C(O)CCS
Columns and labels:
[1] = test system: whole blood samples (extrinsic coagulation pathway); experiment: Thromboelastogram (TEG) coagulation test on disposable test strip; assay type: biochemical; conditions: for peak / maximum thrombin generation (ThrombinPeak): blood samples with increasing concentrations of the anticoagulant (heparin 0 to 3 IU/ml); for clot formation time (R): blood samples with increasing concentrations of the anticoagulant, FIG. 20(a), 21(a); for clot stiffness G: blood samples with increasing concentrations of the substance (cleavable fibrinogen 42 to 231 mg/dL); for ratio of the normalized ThrombinPeak and clot stiffness G: tested samples with increasing anticoagulant concentrations, FIG. 22(d)
Method: The disposable test strips used in this example were incorporated with a reagent comprising of rabbit brain thromboplastin (Pacific Hemostasis Prothrombin Time reagent, Thromboplastin-DS, Product# 29-227-3), calcium chloride (25 mM) and Tween (2% v/v aqueous solution). Prior to the final assembly of the strip, the reagent was incorporated by dispensing the solution on to the exposed hydrophilic surface in the bottom stack, followed by air-drying in a drying box with humidity control at standard room temperature and pressure. The ratio of the volume of the reagent to blood tested in the chamber was maintained at close to 2:1 to ensure successful initiation of the blood coagulation reaction. […] In this example, venous whole blood and finger-stick, capillary whole blood samples from a normal subject were used. In addition, finger-stick, capillary whole blood samples from patients undergoing warfarin therapy at an anticoagulation clinic were used. Following procurement of informed consent under an Institutional Review Board (IRB) approved protocol, phlebotomy was performed to extract the blood sample by venipuncture and the sample was directly dispensed into blood collection tubes containing sodium citrate anticoagulant. The citrated whole blood samples were contrived in vitro to incorporate varying amounts of unfractionated heparin (0 to 3 IU/ml), cleavable fibrinogen (42 to 231 mg/dL), Eptifibatide (GPIIb/IIIa platelet inhibitor, 0 to 12 μg/mL), and tissue plasminogen activator (tPA, 0 to 1.8 nM). Further in some tests, following procurement of informed consent under an Institutional Review Board (IRB) approved protocol, a standard lancet was used to extract blood samples by finger-stick and a standard microliter pipette or dropper was used to pick up the sample for insertion into the disposable test strip. Lastly, in some tests, blood samples were also tested using 2 Haemonetics' TEG-5000 instruments (2 tests per instrument) and their corresponding TEG curve & parameters were recorded, in order to perform side-by-side comparison with the results generated using the disposable test strips. Results: • In this example, the oscillation characteristics (amplitude and phase) of the in-plane vibration mode of a physical element in single-use disposable test strips were measured as a function of frequency in the vicinity of the resonance frequency, and these amplitude & phase frequency scans were monitored periodically to determine different aspects of the blood coagulation cascade. The blood sample upon entering the chamber reacted with the dried reagent and started to coagulate through the extrinsic coagulation pathway. An example of the amplitude and phase frequency scans of an oscillating physical element in a disposable test strip with a blood sample in the chamber undergoing coagulation is shown in FIGS. 13(a) and 13(b), respectively, wherein the amplitude and phase at the resonance frequency peak are seen to decrease in magnitude as the blood coagulation cascade progresses. These amplitude and phase frequency scans monitored periodically over time were used to perform a Thromboelastogram (TEG) test, wherein a characteristic […] shaped viscoelastic curve and parameters were extracted. The TEG-like viscoelastic parameters extracted were clot formation time (R), activated clotting time (ACT), maximum thrombin generation (ThrombinPeak), clot stiffness (G), platelet contraction rate (Plt-Cont), and fibrinolysis rate (Lys-Rate). A mathematical model of the viscoelastic oscillation damping of the physical element, which incorporated the different kinetic processes in the coagulation cascade, was used to fit to data from the amplitude and phase frequency scans measured as a function of time. […]

[2] = Method: Ethylene glycol solutions were prepared using de-ionized water in varying concentrations ranging from 0 to 40.38% as shown in Table I. The solutions were prepared in 20 ml de-ionized water and corresponding volume of ethylene glycol solutions concentrations. The fluid sample, when introduced into the assembled disposable test strip through the inlet port (i.e. rectangular opening 207 in FIG. 2(a)), wicked into the chamber under the region of the substrate layer leading up to the suspended beam, followed by the fluid flow being directed through the chamber along the beam length while maintaining contact with the underside of the beam (at or slightly beyond its width), and finally, flowing through the chamber under the region of the substrate layer past the beam leading up to the vent port (i.e. rectangular opening 208 in FIG. 2(a)), which permits air to escape from the chamber as it is loaded with the fluid sample.
[3] = test system: venous whole blood samples (intrinsic coagulation pathway); experiment: High range activated clotting time (ACT) coagulation test on disposable test strip; assay type: biochemical; conditions: citrated venous whole blood spiked in vitro, 1.0 to 5.0 IU/ml; FIG. 12, R^2=0.95
Method: (§1) The disposable test strips used in this example were incorporated with a reagent comprising of kaolin suspended in distilled water, calcium chloride (25 mM) and Tween (2% v/v aqueous solution). Prior to the final assembly of the strip, the reagent was incorporated by dispensing the solution on to the exposed hydrophilic surface in the bottom stack, followed by air-drying in a drying box with humidity control at standard room temperature and pressure. […]
(§2) Results: • In this example, the oscillation characteristics (e.g., amplitude) of the in-plane mode of a physical element in single-use disposable test strips were monitored and recorded before and after introduction of the blood sample, in order to measure the change in viscosity and viscoelasticity of the blood sample as a function of time as it undergoes coagulation. […] An algorithm was used to track the measured oscillation characteristics, viscosity and/or viscoelasticity as a function of time and identify a time to clot formation (measured starting from blood sample insertion time, t=0), in other words known as the activated clotting time (ACT). […] In this specific example, the ACT clotting time measured corresponds to a high-range ACT measurement given the system's sensitivity from 1.0 to 5.0 IU/ml, which corresponds to the high range of heparin therapy used during cardiac and hepatic surgeries.

[4] = test system: venous whole blood samples (intrinsic coagulation pathway); experiment: Low range activated clotting time (ACT) coagulation test on disposable test strip; assay type: biochemical; conditions: citrated venous whole blood spiked in vitro, 0.0 to 3.0 IU/ml; FIG. 11, R^2=0.99
Method: as §1
as §2, with “low-range” for “high-range”, “0.0” for “1.0”, “3.0” for “5.0”, “low” for “high”

[5] = test system: venous whole blood samples (intrinsic coagulation pathway); experiment: Activated partial thromboplastin time (aPTT) coagulation test on disposable test strip; assay type: biochemical; conditions: citrated venous whole blood spiked in vitro, 0.0 to 1.0 IU/ml; FIG. 10, R^2=0.92
Method: as §1, with “Actin-FS activated partial thromboplastin time reagent (Siemens Diagnostics, Catalog# B4218-20),” for “kaolin suspended in distilled water,”, “pressure. The ratio of the volume of the reagent to blood tested in the chamber was maintained at close to 2:1 to ensure successful initiation of the blood coagulation reaction.” for “pressure.”
In this example, the oscillation characteristics (e.g., amplitude) of the in-plane mode of a physical element in single-use disposable test strips were monitored and recorded before and after introduction of the blood sample, in order to measure the change in viscosity and viscoelasticity of the blood sample as a function of time as it undergoes coagulation. […] An algorithm was used to track the measured oscillation characteristics, viscosity and/or viscoelasticity as a function of time and identify a time to clot formation (measured starting from blood sample insertion time, t=0), in other words known as the partial thromboplastin time (aPTT). […]

[6] = 16.22 % v/v in de-ionized water
[7] = 40.38 % v/v in de-ionized water
[8] = 3 warfarin patient samples, increasing warfarin activity, FIG. 15

**Q.** With N=C(N)NCCCC[C@@H]1NC(=O)CCSSC[C@@H](C(N)=O)NC(=O)[C@@H]2CCCN2C(=O)[C@H](Cc2c[nH]c3ccccc23)NC(=O)[C@H](CC(=O)O)NC(=O)CNC1=O [Eptifibatide] ([Mpa][hArg]GDWPC-NH2; disulfide 1-7) as the compound, how does the “rate of platelet contraction (Plt-Cont)” value ([1]; blood samples with increasing concentrations, 0 to 12 μg/mL, FIG. 18(b)) read?
**A.** decreasing trend

**Q.** For OCCO [Ethylene Glycol, ethylene glycol], which Density ([2]; 10 % v/v in de-ionized water) is on record?
**A.** 1.035 gm/cc

**Q.** What about the Viscosity ([2]; 10 % v/v in de-ionized water) of the same compound?
**A.** 1.9903 cP

**Q.** And the Density [2, 6]?
**A.** 1.052 gm/cc

**Q.** What about the Viscosity [2, 6] of the same compound?
**A.** 2.7938 cP

**Q.** What about the Density ([2]; 22.5 % v/v in de-ionized water) of the same compound?
**A.** 1.065 gm/cc

**Q.** And the Viscosity ([2]; 22.5 % v/v in de-ionized water)?
**A.** 3.711 cP

**Q.** And the Density [2, 7]?
**A.** 1.088 gm/cc

**Q.** What about the Viscosity [2, 7] of the same compound?
**A.** 6.8247 cP

**Q.** What does the source list for O=C(NC[C@H]1CN(c2ccc(N3CCOCC3=O)cc2)C(=O)O1)c1ccc(Cl)s1 [Rivaroxaban]?
**A.** peak / maximum thrombin generation (ThrombinPeak) [1]: reducing; clot formation time (R) [1]: increasing linear trend; clot stiffness G [1]: limited to no effect; ratio of the normalized ThrombinPeak and clot stiffness G [1]: decreasing linear trend

**Q.** For CC(=O)CC(c1ccccc1)c1c(O)c2ccccc2oc1=O (stereo not shown) [warfarin], which maximum thrombin generation ([1]; 3 warfarin patient samples, increasing warfarin activity (PT 17.4, 36.4, 54.4 seconds), FIG. 15) is on record?
**A.** steady decrease

**Q.** What about the “time to maximum fibrin formation (TMA)” value [1, 8] of the same compound?
**A.** delayed

**Q.** What about the “time to maximum thrombin generation (analogous to the ACT)” value [1, 8] of the same compound?
**A.** delayed

**Q.** With Dabigatran as the compound, how does the “peak / maximum thrombin generation (ThrombinPeak)” value [1] read?
**A.** limited to no effect

**Q.** And the “clot formation time (R)” value [1]?
**A.** increasing linear trend

**Q.** And the “clot stiffness G” value [1]?
**A.** reducing

**Q.** What about the “ratio of the normalized ThrombinPeak and clot stiffness G” value [1] of the same compound?
**A.** increasing

**Q.** With heparin as the compound, how does the “uncalibrated ACT clotting time (high-range)” value [3] read?
**A.** linear dose response

**Q.** What about the “uncalibrated ACT clotting time (low-range)” value [4] of the same compound?
**A.** linear dose response

**Q.** And the “uncalibrated aPTT clotting time” value [5]?
**A.** linear dose response

**Q.** And the “peak / maximum thrombin generation (ThrombinPeak)” value [1]?
**A.** decrease

**Q.** What about the “activated clotting time (ACT), time to peak thrombin generation” value ([1]; blood samples with increasing heparin concentrations from 0 to 3 IU/ml, FIG. 16) of the same compound?
**A.** increase
